Data on 2 molecules can be found in ChEMBL document CHEMBL5678818, “Discovery of potent SOS1 inhibitors that block RAS activation via disruption of the RAS-SOS1 interaction” (Proc Natl Acad Sci U S A, 2019).

For assay [1], the target named is MAP kinase-interacting serine/threonine-protein kinase 2 (Homo sapiens) (UniProt Q9HBH9). The experiment in a line: Inhibition of MKNK2 (unknown origin) assessed as residual activity at 1000 nM by KINOMEscan analysis relative to control.
The target of assay [2] is Platelet-derived growth factor receptor beta (Homo sapiens) (UniProt P09619). The experiment in a line: Inhibition of PDGFRB (unknown origin) assessed as residual activity at 1000 nM by KINOMEscan analysis relative to control.
Assay [3] concerns Phosphatidylinositol 4,5-bisphosphate 3-kinase catalytic subunit alpha isoform (Homo sapiens), P42336 [H1047L]. The assay can be described thus: Inhibition of PIK3CA H1047L mutant (unknown origin) assessed as residual activity at 1000 nM by KINOMEscan analysis relative to control.
For assay [4], the target named is Ribosomal protein S6 kinase alpha-2 (Homo sapiens) (UniProt Q15349). The experiment in a line: Inhibition of N-terminal RSK3 […] domain 1 (unknown origin) assessed as residual activity at 1000 nM by KINOMEscan analysis relative to control.
The target of assay [5] is Insulin receptor-related protein (Homo sapiens) (UniProt P14616). The experiment in a line: Inhibition of INSRR (unknown origin) assessed as residual activity at 1000 nM by KINOMEscan analysis relative to control.
Assay [6] concerns Epidermal growth factor receptor (Homo sapiens), P00533 [UNDEFINED MUTATION]. The experiment in a line: Inhibition of EGFR L747-E749del/A750P mutant (unknown origin) assessed as residual activity at 1000 nM by KINOMEscan analysis relative to control.
The target in assay [7] is Fibroblast growth factor receptor 3 (Homo sapiens) (UniProt P22607). The experiment in a line: Inhibition of FGFR3 (unknown origin) assessed as residual activity at 1000 nM by KINOMEscan analysis relative to control.
The test system of assay [8] is Epidermal growth factor receptor (Homo sapiens), P00533 [L861Q]. The experiment in a line: Inhibition of EGFR L861Q mutant (unknown origin) assessed as residual activity at 1000 nM by KINOMEscan analysis relative to control.
Assay [9] has as its target T1, 3-phosphoinositide-dependent protein kinase 1 (Homo sapiens) (UniProt O15530).
T1 sequence (whole entry): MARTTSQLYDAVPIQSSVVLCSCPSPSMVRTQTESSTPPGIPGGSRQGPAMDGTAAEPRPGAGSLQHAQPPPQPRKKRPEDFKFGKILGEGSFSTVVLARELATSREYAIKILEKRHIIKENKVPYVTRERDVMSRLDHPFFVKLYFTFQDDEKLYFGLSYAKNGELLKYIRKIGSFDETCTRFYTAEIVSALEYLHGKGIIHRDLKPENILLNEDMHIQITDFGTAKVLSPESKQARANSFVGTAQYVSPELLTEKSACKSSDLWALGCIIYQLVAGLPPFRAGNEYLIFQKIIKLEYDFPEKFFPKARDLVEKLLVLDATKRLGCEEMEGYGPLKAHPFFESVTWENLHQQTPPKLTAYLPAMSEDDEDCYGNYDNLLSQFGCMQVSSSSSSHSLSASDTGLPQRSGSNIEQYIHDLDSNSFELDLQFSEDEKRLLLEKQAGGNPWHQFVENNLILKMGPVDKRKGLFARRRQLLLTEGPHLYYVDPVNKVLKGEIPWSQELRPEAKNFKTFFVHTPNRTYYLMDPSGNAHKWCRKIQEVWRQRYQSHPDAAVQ
The assay can be described thus: Inhibition of PDPK1 (unknown origin) assessed as residual activity at 1000 nM by KINOMEscan analysis relative to control.

Assay [10] addresses Dual specificity mitogen-activated protein kinase kinase 1 (Homo sapiens) (UniProt Q02750). The assay can be described thus: Inhibition of MEK1 (unknown origin) assessed as residual activity at 1000 nM by KINOMEscan analysis relative to control.
Assay [11] has as its target T2, Serine/threonine-protein kinase DCLK1 (Homo sapiens) (UniProt O15075).
T2 sequence (whole entry): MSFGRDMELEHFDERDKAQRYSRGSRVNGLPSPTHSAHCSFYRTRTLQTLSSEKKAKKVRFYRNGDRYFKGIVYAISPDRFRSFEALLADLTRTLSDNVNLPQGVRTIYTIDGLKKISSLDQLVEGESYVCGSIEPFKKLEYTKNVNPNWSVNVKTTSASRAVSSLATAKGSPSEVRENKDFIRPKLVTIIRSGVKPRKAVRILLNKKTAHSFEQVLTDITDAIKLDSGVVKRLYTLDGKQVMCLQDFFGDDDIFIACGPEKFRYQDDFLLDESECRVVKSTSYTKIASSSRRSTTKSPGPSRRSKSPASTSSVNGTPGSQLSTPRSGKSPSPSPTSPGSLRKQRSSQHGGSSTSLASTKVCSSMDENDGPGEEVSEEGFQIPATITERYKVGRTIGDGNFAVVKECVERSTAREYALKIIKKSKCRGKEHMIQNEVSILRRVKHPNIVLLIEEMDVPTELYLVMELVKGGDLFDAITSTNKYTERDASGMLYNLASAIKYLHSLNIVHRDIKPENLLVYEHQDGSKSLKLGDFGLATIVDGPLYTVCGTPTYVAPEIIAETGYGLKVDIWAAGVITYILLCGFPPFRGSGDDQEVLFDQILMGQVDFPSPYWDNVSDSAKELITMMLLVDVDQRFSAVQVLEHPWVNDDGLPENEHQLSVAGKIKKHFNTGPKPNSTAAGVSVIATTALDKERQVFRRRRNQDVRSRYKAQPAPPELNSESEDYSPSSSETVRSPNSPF
The experiment in a line: Inhibition of DCAMKL1 (unknown origin) assessed as residual activity at 1000 nM by KINOMEscan analysis relative to control.

Assay [12] has as its target T3, Serine/threonine-protein kinase PknB (Mycobacterium tuberculosis) (UniProt P9WI81).
T3 sequence (whole entry): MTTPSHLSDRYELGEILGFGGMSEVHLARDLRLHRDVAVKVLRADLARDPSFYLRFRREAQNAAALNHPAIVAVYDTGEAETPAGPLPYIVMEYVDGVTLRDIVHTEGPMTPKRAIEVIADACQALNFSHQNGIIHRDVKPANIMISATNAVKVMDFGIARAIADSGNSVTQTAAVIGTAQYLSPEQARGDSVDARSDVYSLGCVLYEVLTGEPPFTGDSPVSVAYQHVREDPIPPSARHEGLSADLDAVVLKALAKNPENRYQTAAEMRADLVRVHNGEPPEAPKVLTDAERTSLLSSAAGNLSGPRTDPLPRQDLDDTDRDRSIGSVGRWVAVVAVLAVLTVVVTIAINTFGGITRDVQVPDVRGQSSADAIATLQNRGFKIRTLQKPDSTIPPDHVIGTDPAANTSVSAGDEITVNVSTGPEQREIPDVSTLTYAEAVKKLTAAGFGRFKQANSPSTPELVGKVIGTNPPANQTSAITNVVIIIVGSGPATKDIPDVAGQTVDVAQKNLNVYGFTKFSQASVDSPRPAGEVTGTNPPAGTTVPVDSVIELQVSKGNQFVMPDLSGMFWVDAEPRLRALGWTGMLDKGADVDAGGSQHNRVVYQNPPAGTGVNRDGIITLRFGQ
The experiment in a line: Inhibition of Mycobacterium tuberculosis PKNB assessed as residual activity at 1000 nM by KINOMEscan analysis relative to control.

Each structure is given as a SMILES string.

Chain of Fibroblast growth factor receptor 3 (Homo sapiens) (P22607 23-806 limits assumed): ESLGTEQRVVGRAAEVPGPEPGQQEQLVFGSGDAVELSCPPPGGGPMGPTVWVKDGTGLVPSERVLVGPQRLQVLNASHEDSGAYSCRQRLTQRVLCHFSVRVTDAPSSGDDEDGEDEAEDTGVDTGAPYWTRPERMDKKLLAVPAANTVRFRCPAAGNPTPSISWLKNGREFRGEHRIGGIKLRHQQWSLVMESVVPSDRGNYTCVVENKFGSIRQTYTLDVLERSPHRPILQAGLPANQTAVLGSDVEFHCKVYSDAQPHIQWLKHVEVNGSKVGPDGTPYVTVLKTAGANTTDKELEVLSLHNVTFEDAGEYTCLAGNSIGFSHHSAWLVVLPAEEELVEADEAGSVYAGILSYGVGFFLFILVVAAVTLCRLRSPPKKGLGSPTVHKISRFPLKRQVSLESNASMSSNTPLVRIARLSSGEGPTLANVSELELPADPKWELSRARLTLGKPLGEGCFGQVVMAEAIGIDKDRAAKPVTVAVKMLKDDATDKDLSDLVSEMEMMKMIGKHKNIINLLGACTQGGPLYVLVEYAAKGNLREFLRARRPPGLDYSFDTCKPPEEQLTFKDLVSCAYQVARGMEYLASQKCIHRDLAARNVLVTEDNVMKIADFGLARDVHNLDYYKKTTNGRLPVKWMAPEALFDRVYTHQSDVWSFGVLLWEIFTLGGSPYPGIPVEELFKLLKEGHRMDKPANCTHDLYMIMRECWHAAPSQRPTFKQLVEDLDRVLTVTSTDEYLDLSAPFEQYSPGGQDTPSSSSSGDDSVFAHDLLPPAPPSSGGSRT
Chain of Phosphatidylinositol 4,5-bisphosphate 3-kinase catalytic subunit alpha isoform (Homo sapiens), P42336 [H1047L] (P42336 whole entry H1047L, canonical isoform): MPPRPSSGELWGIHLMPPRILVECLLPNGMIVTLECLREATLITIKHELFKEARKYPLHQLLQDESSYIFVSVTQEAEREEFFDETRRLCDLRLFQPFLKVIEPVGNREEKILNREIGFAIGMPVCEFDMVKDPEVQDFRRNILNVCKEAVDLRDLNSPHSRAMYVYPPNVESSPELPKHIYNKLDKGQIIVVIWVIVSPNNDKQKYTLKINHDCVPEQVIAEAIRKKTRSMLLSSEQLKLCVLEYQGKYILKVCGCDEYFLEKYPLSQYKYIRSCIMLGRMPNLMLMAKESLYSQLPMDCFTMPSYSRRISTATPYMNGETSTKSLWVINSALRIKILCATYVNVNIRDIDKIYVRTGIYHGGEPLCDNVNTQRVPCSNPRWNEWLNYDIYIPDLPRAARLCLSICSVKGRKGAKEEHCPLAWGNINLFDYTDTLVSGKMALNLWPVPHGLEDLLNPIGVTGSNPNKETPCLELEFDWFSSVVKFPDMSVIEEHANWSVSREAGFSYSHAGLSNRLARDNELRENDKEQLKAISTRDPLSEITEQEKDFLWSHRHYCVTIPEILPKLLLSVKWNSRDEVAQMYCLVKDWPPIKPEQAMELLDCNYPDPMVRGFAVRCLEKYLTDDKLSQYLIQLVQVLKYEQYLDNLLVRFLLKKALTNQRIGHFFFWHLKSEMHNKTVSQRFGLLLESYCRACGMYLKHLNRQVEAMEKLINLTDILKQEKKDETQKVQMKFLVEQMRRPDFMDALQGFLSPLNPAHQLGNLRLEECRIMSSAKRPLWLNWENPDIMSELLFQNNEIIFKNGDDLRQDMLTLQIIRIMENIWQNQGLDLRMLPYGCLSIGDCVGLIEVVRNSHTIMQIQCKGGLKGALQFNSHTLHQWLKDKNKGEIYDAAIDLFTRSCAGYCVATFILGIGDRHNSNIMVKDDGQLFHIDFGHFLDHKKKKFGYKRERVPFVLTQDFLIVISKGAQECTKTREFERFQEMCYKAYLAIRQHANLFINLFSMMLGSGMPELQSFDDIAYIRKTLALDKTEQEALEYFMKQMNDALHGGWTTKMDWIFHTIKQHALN
Chain of Insulin receptor-related protein (Homo sapiens) (P14616 27-742 limits assumed): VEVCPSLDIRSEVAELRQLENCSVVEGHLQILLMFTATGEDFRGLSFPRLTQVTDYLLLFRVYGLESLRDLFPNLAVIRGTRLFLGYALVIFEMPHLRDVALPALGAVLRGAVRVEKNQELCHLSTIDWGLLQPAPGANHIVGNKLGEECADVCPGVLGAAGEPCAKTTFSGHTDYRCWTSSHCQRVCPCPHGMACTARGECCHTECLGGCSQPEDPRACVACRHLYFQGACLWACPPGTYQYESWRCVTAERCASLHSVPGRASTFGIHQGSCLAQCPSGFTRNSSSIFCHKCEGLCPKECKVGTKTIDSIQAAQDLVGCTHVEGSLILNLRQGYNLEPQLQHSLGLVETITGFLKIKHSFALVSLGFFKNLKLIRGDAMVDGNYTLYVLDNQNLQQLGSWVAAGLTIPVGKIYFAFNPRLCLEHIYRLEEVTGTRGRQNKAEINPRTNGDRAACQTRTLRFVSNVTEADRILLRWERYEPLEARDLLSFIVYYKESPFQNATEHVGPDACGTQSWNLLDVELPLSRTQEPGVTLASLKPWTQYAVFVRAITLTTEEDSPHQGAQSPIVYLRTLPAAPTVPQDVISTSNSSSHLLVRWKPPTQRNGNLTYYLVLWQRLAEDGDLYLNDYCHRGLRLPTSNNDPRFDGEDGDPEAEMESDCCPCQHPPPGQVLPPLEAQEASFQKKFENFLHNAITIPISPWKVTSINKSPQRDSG
Chain of Insulin receptor-related protein (Homo sapiens) (P14616 747-1297 limits assumed): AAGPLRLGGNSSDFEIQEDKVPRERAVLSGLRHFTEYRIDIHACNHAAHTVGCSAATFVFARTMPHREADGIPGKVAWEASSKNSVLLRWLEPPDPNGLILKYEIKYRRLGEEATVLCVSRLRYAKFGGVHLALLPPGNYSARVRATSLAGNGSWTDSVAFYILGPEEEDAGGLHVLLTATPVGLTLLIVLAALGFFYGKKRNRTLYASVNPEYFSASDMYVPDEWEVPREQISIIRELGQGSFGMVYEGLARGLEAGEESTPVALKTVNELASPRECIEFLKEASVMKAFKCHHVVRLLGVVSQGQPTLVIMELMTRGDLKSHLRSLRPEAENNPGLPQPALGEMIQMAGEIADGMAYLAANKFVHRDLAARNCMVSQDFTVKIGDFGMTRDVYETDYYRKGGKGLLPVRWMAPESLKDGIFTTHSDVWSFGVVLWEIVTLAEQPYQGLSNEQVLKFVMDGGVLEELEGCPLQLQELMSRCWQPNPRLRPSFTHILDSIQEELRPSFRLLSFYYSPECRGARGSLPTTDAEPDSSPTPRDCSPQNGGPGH
Chain of Dual specificity mitogen-activated protein kinase kinase 1 (Homo sapiens) (Q02750 whole entry): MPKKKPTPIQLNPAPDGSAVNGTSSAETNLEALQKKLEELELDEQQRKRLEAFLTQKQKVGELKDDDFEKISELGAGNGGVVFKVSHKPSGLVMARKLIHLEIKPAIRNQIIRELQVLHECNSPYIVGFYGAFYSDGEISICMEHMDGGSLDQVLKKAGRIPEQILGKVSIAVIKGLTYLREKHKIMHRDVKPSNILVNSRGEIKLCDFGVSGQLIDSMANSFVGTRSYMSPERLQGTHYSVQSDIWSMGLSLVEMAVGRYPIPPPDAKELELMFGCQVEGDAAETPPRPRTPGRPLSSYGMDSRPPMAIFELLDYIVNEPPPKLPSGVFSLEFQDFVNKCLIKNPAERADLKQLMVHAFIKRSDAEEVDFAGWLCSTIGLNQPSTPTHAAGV
Chain of Platelet-derived growth factor receptor beta (Homo sapiens) (P09619 whole entry, canonical isoform): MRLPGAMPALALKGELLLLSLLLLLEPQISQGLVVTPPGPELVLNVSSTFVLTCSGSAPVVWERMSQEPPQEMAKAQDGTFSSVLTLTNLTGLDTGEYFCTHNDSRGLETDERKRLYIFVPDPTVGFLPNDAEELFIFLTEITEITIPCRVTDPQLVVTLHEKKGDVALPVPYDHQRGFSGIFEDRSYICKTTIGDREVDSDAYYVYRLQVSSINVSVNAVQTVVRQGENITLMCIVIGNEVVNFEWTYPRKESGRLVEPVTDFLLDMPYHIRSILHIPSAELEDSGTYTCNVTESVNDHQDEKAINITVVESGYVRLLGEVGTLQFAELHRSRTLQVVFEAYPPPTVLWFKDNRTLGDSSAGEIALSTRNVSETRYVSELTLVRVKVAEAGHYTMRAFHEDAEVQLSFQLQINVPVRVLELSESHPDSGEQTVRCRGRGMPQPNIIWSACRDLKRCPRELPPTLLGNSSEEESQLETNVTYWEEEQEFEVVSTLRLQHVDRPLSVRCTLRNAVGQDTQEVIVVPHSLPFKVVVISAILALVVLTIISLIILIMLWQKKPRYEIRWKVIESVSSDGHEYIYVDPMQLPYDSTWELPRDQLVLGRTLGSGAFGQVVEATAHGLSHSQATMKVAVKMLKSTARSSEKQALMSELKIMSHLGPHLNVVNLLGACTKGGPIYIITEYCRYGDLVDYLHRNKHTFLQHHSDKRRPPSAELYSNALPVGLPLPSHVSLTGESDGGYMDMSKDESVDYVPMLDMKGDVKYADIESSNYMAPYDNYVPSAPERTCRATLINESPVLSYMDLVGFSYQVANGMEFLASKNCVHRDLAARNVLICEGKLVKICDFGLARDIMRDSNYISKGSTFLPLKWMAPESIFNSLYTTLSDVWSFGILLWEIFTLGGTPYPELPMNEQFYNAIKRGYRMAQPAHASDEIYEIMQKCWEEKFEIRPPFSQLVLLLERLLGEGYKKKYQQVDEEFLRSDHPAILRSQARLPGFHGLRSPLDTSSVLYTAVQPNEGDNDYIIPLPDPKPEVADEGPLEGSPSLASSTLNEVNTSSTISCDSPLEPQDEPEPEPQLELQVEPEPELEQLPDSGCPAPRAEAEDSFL

`COc1cc2nc(C)nc(N[C@H](C)c3cccc(-c4cn[nH]c4)c3)c2cc1OC`: the Activity came to 89% in [1]; 100% in assay [2]; 96% in [3]; 94% in assay [4]; 97% in [5]; 99% in [6]. For the same molecule, the Activity in assay [7] was found to be 100%; in assay [8], 86%; in assay [9], 97%; in [10] it was 85%; in assay [11] it was 64%; in assay [12] it was 89%.

Consider `COc1cc2ncnc(N[C@H](C)c3cccc4ccccc34)c2cc1OC`, for which the Activity turned out to be 100% in [1]; 94% in assay [2]; 92% in assay [3]; 100% in [4]; 93% in [5]; 3.2% in assay [6]. For the same molecule, the Activity in [7] came to 100%; in assay [8], 1.1%; in assay [9] it was 88%; in assay [10], 96%; in assay [11], 76%; in assay [12] it was 94%.
